Laboratory results as given in ChEMBL document CHEMBL5244273, “Tuberculosis: An Overview of the Immunogenic Response, Disease Progression, and Medicinal Chemistry Efforts in the Last Decade toward the Development of Potential Drugs for Extensively Drug-Resistant Tuberculosis Strains” (J Med Chem, 2021).
Values after ≈ are worked out from the molar mass of the structure shown.

Experiments:
Type in all cases: functional
[1] = test system: Mycobacterium tuberculosis; assay: Antitubercular activity against extensively drug resistant Mycobacterium tuberculosis H37Rv assessed as inhibition of bacterial growth by alamar blue assay
[2] = test system: Mycobacterium tuberculosis; assay: Antitubercular activity against multidrug resistant Mycobacterium tuberculosis H37Rv assessed as inhibition of bacterial growth by alamar blue assay
[3] = test system: Mycobacterium tuberculosis; assay: Antitubercular activity against multidrug resistant Mycobacterium tuberculosis clinical isolate 8 by resazurin microtitre assay
[4] = test system: Mycobacterium tuberculosis; assay: Antitubercular activity against extensively drug resistant Mycobacterium tuberculosis KMRC 0 0203-0 0197 by resazurin microtitre assay
[5] = test system: Mycobacterium tuberculosis; assay: Antitubercular activity against multidrug resistant Mycobacterium tuberculosis clinical isolate 5 by resazurin microtitre assay
[6] = test system: Mycobacterium tuberculosis; assay: Antitubercular activity against multidrug resistant Mycobacterium tuberculosis clinical isolate 4 by resazurin microtitre assay
[7] = test system: Mycobacterium tuberculosis; assay: Antitubercular activity against extensively drug resistant Mycobacterium tuberculosis clinical isolate 10 by resazurin microtitre assay
[8] = test system: Mycobacterium tuberculosis; assay: Antitubercular activity against multidrug resistant Mycobacterium tuberculosis clinical isolate 1 by resazurin microtitre assay
[9] = test system: Mycobacterium tuberculosis; assay: Antitubercular activity against extensively drug resistant Mycobacterium tuberculosis clinical isolate 4 by resazurin microtitre assay
[10] = test system: Mycobacterium tuberculosis; assay: Antitubercular activity against multidrug resistant Mycobacterium tuberculosis clinical isolate 11 by resazurin microtitre assay
[11] = test system: Mycobacterium tuberculosis; assay: Antitubercular activity against extensively drug resistant Mycobacterium tuberculosis clinical isolate 1 by resazurin microtitre assay
[12] = test system: Mycobacterium tuberculosis; assay: Antitubercular activity against multidrug resistant Mycobacterium tuberculosis clinical isolate 9 by resazurin microtitre assay
[13] = test system: Mycobacterium tuberculosis; assay: Antitubercular activity against multidrug resistant Mycobacterium tuberculosis clinical isolate 7 by resazurin microtitre assay
[14] = test system: Mycobacterium tuberculosis; assay: Antitubercular activity against extensively drug resistant Mycobacterium tuberculosis clinical isolate 9 by resazurin microtitre assay
[15] = test system: Mycobacterium tuberculosis; assay: Antitubercular activity against extensively drug resistant Mycobacterium tuberculosis clinical isolate 6 by resazurin microtitre assay
[16] = test system: Mycobacterium tuberculosis; assay: Antitubercular activity against multidrug resistant Mycobacterium tuberculosis clinical isolate 3 by resazurin microtitre assay
[17] = test system: Mycobacterium tuberculosis; assay: Antitubercular activity against extensively drug resistant Mycobacterium tuberculosis clinical isolate 7 by resazurin microtitre assay
[18] = test system: Mycobacterium tuberculosis; assay: Antitubercular activity against extensively drug resistant Mycobacterium tuberculosis clinical isolate 11 by resazurin microtitre assay
[19] = test system: Mycobacterium tuberculosis; assay: Antitubercular activity against extensively drug resistant Mycobacterium tuberculosis clinical isolate 3 by resazurin microtitre assay
[20] = test system: Mycobacterium tuberculosis; assay: Antitubercular activity against extensively drug resistant Mycobacterium tuberculosis clinical isolate 5 by resazurin microtitre assay
[21] = test system: Mycobacterium tuberculosis; assay: Antitubercular activity against extensively drug resistant Mycobacterium tuberculosis clinical isolate 2 by resazurin microtitre assay
[22] = test system: Mycobacterium tuberculosis; assay: Antitubercular activity against multidrug resistant Mycobacterium tuberculosis clinical isolate 10 by resazurin microtitre assay
[23] = test system: Mycobacterium tuberculosis; assay: Antitubercular activity against multidrug resistant Mycobacterium tuberculosis clinical isolate 6 by resazurin microtitre assay
[24] = test system: Mycobacterium tuberculosis; assay: Antitubercular activity against extensively drug resistant Mycobacterium tuberculosis clinical isolate 8 by resazurin microtitre assay
[25] = test system: Mycobacterium tuberculosis; assay: Antitubercular activity against multidrug resistant Mycobacterium tuberculosis clinical isolate 2 by resazurin microtitre assay
[26] = test system: Mycobacterium tuberculosis; assay: Antimycobacterial activity against isoniazid and ethionamide resistant Mycobacterium tuberculosis clinical isolate B
[27] = test system: Mycobacterium tuberculosis; assay: Antimycobacterial activity against isoniazid, streptomycin, and rifampicin resistant Mycobacterium tuberculosis clinical isolate C
[28] = test system: Mycobacterium tuberculosis; assay: Antimycobacterial activity against isoniazid and rifampicin resistant Mycobacterium tuberculosis clinical isolate D
[29] = test system: Mycobacterium tuberculosis; assay: Antimycobacterial activity against isoniazid, streptomycin and ethionamide resistant Mycobacterium tuberculosis clinical isolate F
[30] = test system: Mycobacterium tuberculosis; assay: Antimycobacterial activity against isoniazid, streptomycin, ethambutol and ethionamide resistant Mycobacterium tuberculosis clinical isolate A
[31] = test system: Mycobacterium tuberculosis; assay: Antimycobacterial activity against isoniazid, streptomycin, rifampicin, ethambutol, ethionamide and ofloxacin resistant Mycobacterium tuberculosis clinical isolate H
[32] = test system: Mycobacterium tuberculosis; assay: Antimycobacterial activity against isoniazid and ethionamide resistant Mycobacterium tuberculosis clinical isolate E
[33] = test system: Mycobacterium tuberculosis; assay: Antimycobacterial activity against isoniazid, streptomycin, rifampicin, ethambutol and ethionamide resistant Mycobacterium tuberculosis clinical isolate G
[34] = test system: Mycobacterium tuberculosis; assay: Antimycobacterial activity against Mycobacterium tuberculosis clinical isolate 581-17 harboring gyrA QRDR c270t (A90V) mutant and wild type gyrB
[35] = test system: Mycobacterium tuberculosis; assay: Antimycobacterial activity against Mycobacterium tuberculosis clinical isolate 199-00 harboring gyrA QRDR c270t (A90V) mutant and wild type gyrB
[36] = test system: Mycobacterium tuberculosis; assay: Antimycobacterial activity against Mycobacterium tuberculosis clinical isolate 666-0 harboring wild type gyrA and wild type gyrB
[37] = test system: Mycobacterium tuberculosis; assay: Antimycobacterial activity against Mycobacterium tuberculosis clinical isolate 775-0 harboring gyrA QRDR c270t (A90V) mutant and wild type gyrB
[38] = test system: Mycobacterium tuberculosis; assay: Antimycobacterial activity against Mycobacterium tuberculosis clinical isolate 152-0 harboring wild type gyrA and wild type gyrB
[39] = test system: Mycobacterium tuberculosis; assay: Antimycobacterial activity against Mycobacterium tuberculosis clinical isolate 124-0 harboring wild type gyrA and wild type gyrB
[40] = test system: Mycobacterium tuberculosis; assay: Antimycobacterial activity against Mycobacterium tuberculosis clinical isolate 383-0 harboring wild type gyrA and wild type gyrB
[41] = test system: Mycobacterium tuberculosis; assay: Antimycobacterial activity against Mycobacterium tuberculosis H37Rv harboring wild type gyrA and wild type gyrB
[42] = test system: Mycobacterium tuberculosis; assay: Antimycobacterial activity against Mycobacterium tuberculosis clinical isolate 410-11 harboring wild type and wild type gyrB
[43] = test system: Mycobacterium tuberculosis; assay: Antimycobacterial activity against Mycobacterium tuberculosis clinical isolate 427-18 harboring gyrA QRDR c270t (A90V) mutant and wild type gyrB
[44] = test system: Mycobacterium tuberculosis; assay: Antimycobacterial activity against Mycobacterium tuberculosis clinical isolate 742-0 harboring gyrA QRDR a282g (D94G) mutant and wild type gyrB
[45] = test system: Mycobacterium tuberculosis; assay: Antimycobacterial activity against extensively-resistant Mycobacterium tuberculosis H37Rv assessed as inhibition of bacterial growth by alamar blue assay
[46] = test system: Mycobacterium tuberculosis; assay: Antimycobacterial activity against multidrug-resistant Mycobacterium tuberculosis H37Rv assessed as inhibition of bacterial growth by alamar blue assay
[47] = test system: Mycobacterium tuberculosis; assay: Antimycobacterial activity against isoniazid, rifampicin, ethambutol, pyrazinamide, capreomycin, and ethionamide resistant Mycobacterium tuberculosis clinical isolate incubated for 7 days by resazurin microtitre assay; details: 168 h, time 7 day
[48] = test system: Mycobacterium tuberculosis; assay: Antimycobacterial activity against isoniazid resistant Mycobacterium tuberculosis clinical isolate incubated for 7 days by resazurin microtitre assay; details: 168 h, time 7 day
[49] = test system: Mycobacterium tuberculosis; assay: Antimycobacterial activity against isoniazid, rifampicin, ethambutol, pyrazinamide, streptomycin, capreomycin, amikacin, kanamycin, ofloxacin, and ethionamide resistant Mycobacterium tuberculosis clinical isolate incubated for 7 days by resazurin microtitre assay; details: 168 h, time 7 day

O=C(Cc1ccccc1F)NNC(=O)c1ccncc1
MIC [1]: 250 µg/mL (≈ 915 µM)
MIC [2]: 62.5 µg/mL (≈ 229 µM)

CCN(CC)CCOc1c(C(=O)OC)c2c3c(oc2c2ccccc12)C(=O)c1ccccc1C3=O
MIC [3]: 0.39 µg/mL (≈ 0.827 µM)
MIC50 [4]: 0.19 µg/mL (≈ 0.403 µM)
MIC [5]: 0.19 µg/mL (≈ 0.403 µM)
MIC [6]: 0.19 µg/mL (≈ 0.403 µM)
MIC [7]: 0.02 µg/mL (≈ 0.0424 µM)
MIC [8]: 0.19 µg/mL (≈ 0.403 µM)
MIC [9]: 0.19 µg/mL (≈ 0.403 µM)
MIC [10]: 0.39 µg/mL (≈ 0.827 µM)
MIC [11]: 0.02 µg/mL (≈ 0.0424 µM)
MIC [12]: 0.02 µg/mL (≈ 0.0424 µM)
MIC [13]: 0.02 µg/mL (≈ 0.0424 µM)
MIC [14]: 0.19 µg/mL (≈ 0.403 µM)
MIC [15]: 0.19 µg/mL (≈ 0.403 µM)
MIC [16]: 0.19 µg/mL (≈ 0.403 µM)
MIC [17]: 0.19 µg/mL (≈ 0.403 µM)
MIC [18]: 0.19 µg/mL (≈ 0.403 µM)
MIC [19]: 0.19 µg/mL (≈ 0.403 µM)
MIC [20]: 0.19 µg/mL (≈ 0.403 µM)
MIC [21]: 0.02 µg/mL (≈ 0.0424 µM)
MIC [22]: 0.02 µg/mL (≈ 0.0424 µM)
MIC [23]: 0.02 µg/mL (≈ 0.0424 µM)
MIC [24]: 0.19 µg/mL (≈ 0.403 µM)
MIC [25]: 0.02 µg/mL (≈ 0.0424 µM)

Oc1ccc(-c2nnc(S)o2)cc1
MIC [26]: 8 µg/mL (≈ 41.2 µM)
MIC [27]: 16 µg/mL (≈ 82.4 µM)
MIC [28]: > 32 µg/mL
MIC [29]: 8 µg/mL (≈ 41.2 µM)
MIC [30]: > 32 µg/mL
MIC [31]: 2 µg/mL (≈ 10.3 µM)
MIC [32]: 16 µg/mL (≈ 82.4 µM)
MIC [33]: > 32 µg/mL

CC(C)(C)n1cc(C(=O)O)c(=O)c2cc(F)c(-c3cccnc3)cc21
MIC [34]: 2 µg/mL (≈ 5.88 µM)
MIC [35]: 4 µg/mL (≈ 11.8 µM)
MIC [36]: 4 µg/mL (≈ 11.8 µM)
MIC [37]: 2 µg/mL (≈ 5.88 µM)
MIC [38]: 4 µg/mL (≈ 11.8 µM)
MIC [39]: 1 µg/mL (≈ 2.94 µM)
MIC [40]: 2 µg/mL (≈ 5.88 µM)
MIC [41]: 0.5 µg/mL (≈ 1.47 µM)
MIC [42]: 4 µg/mL (≈ 11.8 µM)
MIC [43]: 1 µg/mL (≈ 2.94 µM)
MIC [44]: 32 µg/mL (≈ 94 µM)

CC(C)(C)n1cc(C(=O)O)c(=O)c2cc(F)c(-c3ccc(O)cc3)cc21
MIC [34]: 8 µg/mL (≈ 22.5 µM)
MIC [35]: 2 µg/mL (≈ 5.63 µM)
MIC [36]: 2 µg/mL (≈ 5.63 µM)
MIC [37]: 2 µg/mL (≈ 5.63 µM)
MIC [38]: 2 µg/mL (≈ 5.63 µM)
MIC [39]: 1 µg/mL (≈ 2.81 µM)
MIC [40]: 2 µg/mL (≈ 5.63 µM)
MIC [41]: 1 µg/mL (≈ 2.81 µM)
MIC [42]: 2 µg/mL (≈ 5.63 µM)
MIC [43]: 1 µg/mL (≈ 2.81 µM)
MIC [44]: 2 µg/mL (≈ 5.63 µM)

Cc1cc(O)n2nc(Nc3ccc(Cl)c(Cl)c3)c(C(N)=O)c2n1
MIC [45]: 50 µg/mL (≈ 142 µM)
MIC [46]: 12.5 µg/mL (≈ 35.5 µM)

Cc1ccc(NC(=O)c2c(Nc3ccc(Cl)cc3)nn3c(O)cc(C)nc23)cc1
MIC [45]: > 100 µg/mL
MIC [46]: 6.25 µg/mL (≈ 15.3 µM)

CC(=O)N1/C(=C/c2ccc(-c3ccc(C)cc3)cc2)C(=O)c2ccccc21
MIC [47]: 17.7 µM (≈ 6.26 µg/mL)
MIC [48]: 17.7 µM (≈ 6.26 µg/mL)
MIC [49]: 17.7 µM (≈ 6.26 µg/mL)

CC(=O)N1/C(=C/c2ccc(-c3ccccc3)cc2)C(=O)c2ccccc21
MIC [47]: 12.3 µM (≈ 4.17 µg/mL)
MIC [48]: 12.3 µM (≈ 4.17 µg/mL)
MIC [49]: 12.3 µM (≈ 4.17 µg/mL)
